Results reported in patent US20060058346A1, “Novel enantiomers of etrahydroisoquinoline derivatives and theirpharmaceutically acceptable salts, their preparations and pharmaceutical compositions” (priority 2002, published 2006).
Read-outs that look alike come from different tables or passages of the source.

Assays:
left auricle muscle = test: Contractile force of left auricle muscle excised from rats; set-up: species or system rat; conditions: for Contractile Force of Auricle Muscles: vehicle control:100%
Description: (§1) Immediately after Sprague-Dawley rats (female or male) were anaesthetized with pentobarbital sodium (50 mg/kg, i.m.), the thorax was opened to excise the heart. The heart was submerged in Krebs solution, and left auricle muscle and right auricle muscle were then isolated. The left auricle muscle was placed in an organ bath for recording of contractile force, and applied with electrical field stimulation (voltage 10% higher than threshold voltage, 1 Hz frequency, 5 ms duration). In the case of right auricle muscle, which contracts spontaneously, the number of continuous beats was recorded. In this experiment, to measure contractile fore of the two auricle muscles, the organ bath was warmed to 37° C., and as a physiological solution, Krebs solution (119.8 mM NaCl, 4.6 mM KCl, 2.5 mM CaCl2, 1.2 mM MgCl2, 25 mM NaHCO3, 1.2 mM KH2PO4, 10 mM glucose, 1 mM EDTA, pH 7.4) was used. The Krebs solution (pH 7.4) was continuously saturated with a gas mixture of 95% O2 and 5% CO2. The auricle muscle was under a tension of 1 g, and Krebs solution was exchanged with fresh solution at intervals of 20 minutes while equilibrium was maintained during a recording period of 60 minutes.

right auricle muscle = test: Heart rates (beats) of right auricle muscle excised from rats; set-up: species or system rat; conditions: for Heart Rates of Auricle Muscles: vehicle control:100%
Description: as §1

Rat Thoracic Aortas = test: Relaxation of rat thoracic aortas contracted by phenylephrine; conditions: for IC50: Rattus norvegicus, Endothelial cell, 0.1 μM phenylephrine contraction; for relaxation of contracted blood vessels: concentration-dependant manner
Description: Experimental group was divided into two groups, group containing endothelial cells of blood vessel and group not containing. Blood vessel of thoracic aortas was induced to contract by treatment with 0.1 μM of phenyleprine under tension of 1 g. Upon arriving at equilibrium, the enantiomers were added to an organ bath in a cumulative manner. Relaxation of thoracic aortas was recorded using a physiograph (Grass P7), calculating their response to the compounds with consideration of their added amount.

[1] = system: RAW 264.7 macrophage cells; test: Nitric oxide production in macrophage cell stimulated by LPS (Griess); format: cell-based; conditions: for inhibition of production of NO: LPS-stimulated macrophage cell; for NO production by LPS in macrophage cell: LPS 1 μg/ml
Description: RAW 264.7 macrophage cells were plated on 100 mm culture dishes at a density of 1-2×10^5 cells. Thereafter, the said macrophage cell was incubated in DMEM medium containing 10% fetal calf serum (heat-inactivated), 100 U/ml penicillin, and […] streptomycin in a CO2 incubator. The said macrophage cell was incubated therein confluently. The said incubated macrophage cells were transferred to serum-free DMEM medium, and further incubated therein for about 24 hours. Thereafter, macrophage cells were stimulated with LPS (1 μg/ml) for about 8 hours. (In this progress, experimental group was divided into two groups, group to which the compound was administered, and group to which the compound was not.) Then, nitrite quantification was achieved by performing calorimetric reaction for produced nitrite with Griess reagent and then measuring absorbance at 550 nm, while using NaNO2 as a standard.

[2] = system: rat with DIC and MOF induced by endotoxin; test: Endotoxin-induced DIC and multiple organ failure in rat; format: in vivo; conditions: for platelet concentration compared with LPS only: FIG. 2
Description: Rats (Crj:CD(SD); 250±20 g) were used to test sample. Before the compound was administered, the rat was not fed. The compound was orally administered one time per day for two days in an amount of 10 mg˜25 mg/10 ml/kg/day. Distilled water (control group and LPS group) or enantiomer was administered to the rat repeatedly. After one hour, rat was anaesthetized with intramuscular injection of 50 mg/kg of pentobarbital. […] Thereafter, 50 mg/kg of pentobarbital was injected at 2 hour to the rat by intramuscular injection. Therefore, the rat was anaesthetized for all the experiment and operation.
The blood (2 ml for FDP and 6 ml for other variables) was collected from abdominal artery using a plastic syringe, into glass tube containing soy bean trypsin inhibitor and Bothrops atrox venom to measure FDP and into plastic tube containing 2.2% sodium citrate (1/10, volume/volume). The aggregated blood was centrifuged at 1200×g for 5 minutes two times. Before measurement of FDP, the supernatant was stored at freezer for at least 12 hours. Citrated blood was centrifuged at 2000×g for 30 minutes. The supernatant was used for measurement of fibrinogen and PT or APTT time. The aggregated blood collected in glass tube was disposed at the room temperature for 30 min, centrifuged to give the serum for measurement of AST and BUN.
Platelet from total citrated blood was counted by using automatic platelet counter (PLT-4, Texas International Lab.) PT or APTT time was measured by Beckton Dickenson BBL Fibrosystem (Coctkeysville, USA). FDP analysis was accomplished by using Thrombo-wellcotest kit. The said analysis was accomplished by up and down dilution method semi-quantitatively. Measurement of AST and BUN was accomplished by using Autobiochemical analyzer (Hitach 747, Japan).

LPS-injected rat = test: Survival in LPS-injected rat; format: in vivo
Description: Rats (25˜30 g, ICR), originated from NIH cancer institute (Bethesda, Md., USA) were purchased from Korea Test Animal Corp. (Unsung, Korea). 20 mg/kg of LPS was injected to abdominal cavity of the rat. Thereafter, survival was observed every 24 hours for seven days, to investigate effect of enantiomer on the survival in LPS-injected rat. The compound represented by formula 3 to 8 was administered 30 min before the LPS injection.

[3] = Acute toxicity in rat (LD50); format: in vivo; conditions: Sprague-Dawley, in vivo
Description: Sprague-Dawley rats (six weeks) were used as test sample. Each group was comprised of two rats. […] The said emulsion was administered to two rats one times using intravenous injection and intraperitoneal injection.

[4] = group containing endothelial cells, read-out: IC50 (E+), concentration showing relaxation response of 50%
[5] = group not containing endothelial cells, read-out: IC50 (E−), concentration showing relaxation response of 50%
[6] = 15 mg/kg compound 30 min before LPS 20 mg/kg i.p.
[7] = 30 mg/kg compound 30 min before LPS 20 mg/kg i.p.
[8] = ip, single intraperitoneal injection, read-out: LD50, Intraperitioneal injection
[9] = single intravenous injection, read-out: LD50, Intravenous injection

## Oc1cc2c(cc1O)[C@@H](Cc1cccc3ccccc13)NCC2 [Formula 6, (R)-6,7-Dihydroxy-1-(α-naphthylmethyl)-1,2,3,4-tetrahydroisoquinoline]
Left auricle muscle
  effect on contractile force of auricle muscles: no effect
Left auricle muscle; 1 × 10^−4 M
  Contractile Force of Auricle Muscles: 50%
Left auricle muscle; 1 × 10^−5 M
  Contractile Force of Auricle Muscles: 50%
Left auricle muscle; 1 × 10^−6 M
  Contractile Force of Auricle Muscles: 75%
Left auricle muscle; 1 × 10^−7 M
  Contractile Force of Auricle Muscles: 100%
Left auricle muscle; 3 × 10^−5 M
  Contractile Force of Auricle Muscles: 50%
Left auricle muscle; 3 × 10^−6 M
  Contractile Force of Auricle Muscles: 50%
Left auricle muscle; 3 × 10^−7 M
  Contractile Force of Auricle Muscles: 87%
Right auricle muscle
  effect on heart rates of auricle muscles: no effect
Right auricle muscle; 1 × 10^−4 M
  Heart Rates of Auricle Muscles: 71%
Right auricle muscle; 1 × 10^−5 M
  Heart Rates of Auricle Muscles: 85%
Right auricle muscle; 1 × 10^−6 M
  Heart Rates of Auricle Muscles: 93.75%
Right auricle muscle; 1 × 10^−7 M
  Heart Rates of Auricle Muscles: 100%
Right auricle muscle; 3 × 10^−5 M
  Heart Rates of Auricle Muscles: 75%
Right auricle muscle; 3 × 10^−6 M
  Heart Rates of Auricle Muscles: 94%
Right auricle muscle; 3 × 10^−7 M
  Heart Rates of Auricle Muscles: 93.75%
Rat Thoracic Aortas; [4]
  IC50: 1280 nM
Rat Thoracic Aortas; [5]
  IC50: 8810 nM
Rat Thoracic Aortas
  relaxation of contracted blood vessels: induced relaxation
[1]
  inhibition of production of NO: never or slightly inhibited production of NO
[1]; compound 10 μM
  NO production by LPS in macrophage cell: 36 µM
[1]; compound 50 μM
  NO production by LPS in macrophage cell: 34 µM
[1]; compound 100 μM
  NO production by LPS in macrophage cell: 38 µM
[2]; LPS 15 mg/kg i.v. 4 hours
  serum level of AST: at the normal level
LPS-injected rat; [6]
  survival after six days: 73%
LPS-injected rat; [7]
  survival after six days: 93%
[3]; [8]
  LD50: 230 mg/kg
[3]; [9]
  LD50: 88 mg/kg

## Oc1cc2c(cc1O)[C@H](Cc1ccc3ccccc3c1)NCC2 [Formula 7, (S)-6,7-Dihydroxy-1-(β-naphthylmethyl)-1,2,3,4-tetrahydroisoquinoline]
Left auricle muscle
  effect on contractile force of auricle muscles: strongly increased
Left auricle muscle; 1 × 10^−4 M
  Contractile Force of Auricle Muscles: 380%
Left auricle muscle; 1 × 10^−5 M
  Contractile Force of Auricle Muscles: 350%
Left auricle muscle; 1 × 10^−6 M
  Contractile Force of Auricle Muscles: 250%
Left auricle muscle; 1 × 10^−7 M
  Contractile Force of Auricle Muscles: 120%
Left auricle muscle; 3 × 10^−5 M
  Contractile Force of Auricle Muscles: 380%
Left auricle muscle; 3 × 10^−6 M
  Contractile Force of Auricle Muscles: 315%
Left auricle muscle; 3 × 10^−7 M
  Contractile Force of Auricle Muscles: 170%
Right auricle muscle
  effect on heart rates of auricle muscles: strongly stimulated
Right auricle muscle; 1 × 10^−4 M
  Heart Rates of Auricle Muscles: 180%
Right auricle muscle; 1 × 10^−5 M
  Heart Rates of Auricle Muscles: 175%
Right auricle muscle; 1 × 10^−6 M
  Heart Rates of Auricle Muscles: 165%
Right auricle muscle; 1 × 10^−7 M
  Heart Rates of Auricle Muscles: 150%
Right auricle muscle; 3 × 10^−5 M
  Heart Rates of Auricle Muscles: 180%
Right auricle muscle; 3 × 10^−6 M
  Heart Rates of Auricle Muscles: 170%
Right auricle muscle; 3 × 10^−7 M
  Heart Rates of Auricle Muscles: 160%
Rat Thoracic Aortas; [4]
  IC50: 757 nM
Rat Thoracic Aortas; [5]
  IC50: 3140 nM
Rat Thoracic Aortas
  relaxation of contracted blood vessels: induced relaxation
[1]
  inhibition of production of NO: strongly inhibited production of NO
[1]; compound 10 μM
  NO production by LPS in macrophage cell: 31.2 µM
[1]; compound 50 μM
  NO production by LPS in macrophage cell: 15.2 µM
[1]; compound 100 μM
  NO production by LPS in macrophage cell: 9.4 µM
[2]; 10 mg/kg, FIG. 4
  serum level of FDP compared with R-configuration: lower
[2]
  platelet concentration compared with LPS only: higher
LPS-injected rat; [6]
  survival after six days: 73%
LPS-injected rat; LPS 20 mg/kg
  decrease of survival at 30 mg/kg versus 15 mg/kg: 7%
[3]; [8]
  LD50: 376 mg/kg
[3]; [9]
  LD50: 184 mg/kg

## Oc1cc2c(cc1O)[C@@H](Cc1ccc3ccccc3c1)NCC2 [Formula 8, (R)-6,7-Dihydroxy-1-(β-naphthylmethyl)-1,2,3,4-tetrahydroisoquinoline]
Left auricle muscle
  effect on contractile force of auricle muscles: no effect
Left auricle muscle; 1 × 10^−4 M
  Contractile Force of Auricle Muscles: 105%
Left auricle muscle; 1 × 10^−5 M
  Contractile Force of Auricle Muscles: 100%
Left auricle muscle; 1 × 10^−6 M
  Contractile Force of Auricle Muscles: 100%
Left auricle muscle; 1 × 10^−7 M
  Contractile Force of Auricle Muscles: 100%
Left auricle muscle; 3 × 10^−5 M
  Contractile Force of Auricle Muscles: 105%
Left auricle muscle; 3 × 10^−6 M
  Contractile Force of Auricle Muscles: 100%
Left auricle muscle; 3 × 10^−7 M
  Contractile Force of Auricle Muscles: 100%
Right auricle muscle
  effect on heart rates of auricle muscles: no effect
Right auricle muscle; 1 × 10^−4 M
  Heart Rates of Auricle Muscles: 105%
Right auricle muscle; 1 × 10^−5 M
  Heart Rates of Auricle Muscles: 105%
Right auricle muscle; 1 × 10^−6 M
  Heart Rates of Auricle Muscles: 100%
Right auricle muscle; 1 × 10^−7 M
  Heart Rates of Auricle Muscles: 100%
Right auricle muscle; 3 × 10^−5 M
  Heart Rates of Auricle Muscles: 105%
Right auricle muscle; 3 × 10^−6 M
  Heart Rates of Auricle Muscles: 100%
Right auricle muscle; 3 × 10^−7 M
  Heart Rates of Auricle Muscles: 100%
Rat Thoracic Aortas; [4]
  IC50: 1950 nM
Rat Thoracic Aortas; [5]
  IC50: 7540 nM
Rat Thoracic Aortas
  relaxation of contracted blood vessels: induced relaxation
[1]
  inhibition of production of NO: never or slightly inhibited production of NO
[1]; compound 10 μM
  NO production by LPS in macrophage cell: 46 µM
[1]; compound 50 μM
  NO production by LPS in macrophage cell: 42 µM
[1]; compound 100 μM
  NO production by LPS in macrophage cell: 40 µM
[2]
  platelet concentration compared with LPS only: higher
LPS-injected rat; [7]
  survival after six days: 72%
[3]; [8]
  LD50: 214 mg/kg
[3]; [9]
  LD50: 80 mg/kg
